Counter-ions that a name gives are not always drawn.
Tests used:
Rattus norvegicus [1] = species on record: Rattus norvegicus; assay: Binding affinity against DA uptake site, using [125I]beta-CIT as radioligand in rat striatal membrane; type: functional, Striatum
Rattus norvegicus [2] = species on record: Rattus norvegicus; assay: Binding affinity against NE uptake site, using [3H]nisoxetine as radioligand in rat striatal membrane; type: functional, Striatum
Rattus norvegicus [3] = species on record: Rattus norvegicus; assay: Binding affinity against 5-HT uptake site, using [3H]citalopram as radioligand in rat cortical membrane; type: functional

| Ki (Rattus norvegicus [1]) [nM] | Ki (Rattus norvegicus [2]) [nM] | Ki (Rattus norvegicus [3]) [nM] | Structure (SMILES) |
| --- | --- | --- | --- |
| 486 | 1.4 | 14.4 | CNCC[C@@H](Oc1cccc(I)c1)c1ccccc1 |
|  | 0.24 | 17.1 | CNCC[C@@H](Oc1ccccc1I)c1ccccc1 |
| 220 | 128 | 0.69 | CNCC[C@@H](Oc1ccc(I)c(C)c1)c1ccccc1 |
|  | 245 | 0.8 | CNCC[C@H](Oc1ccc(I)cc1)c1ccccc1 |
|  |  | 25.1 | CNCC[C@@H](Oc1ccccc1C)c1ccccc1 [ATOMOXETINE HYDROCHLORIDE] |
|  | 3.21 | 1.27 | CNCC[C@@H](Oc1ccc(I)cc1)c1ccccc1 |
| 636 | 1160 | 13.9 | CNCC[C@H](Oc1ccc(I)cc1C)c1ccccc1 |
| 200 | 351 | 0.3 | CNCC[C@H](Oc1ccc(I)c(C)c1)c1ccccc1 |
| 11300 | 3.4 | 5.18 | CNCC[C@@H](Oc1ccc(C)cc1I)c1ccccc1 |
| 410 | 154 | 5.73 | CNCC[C@H](Oc1ccc(C)cc1I)c1ccccc1 |
| 845 | 69 | 0.65 | CNCC[C@@H](Oc1ccc(I)cc1C)c1ccccc1 |
| 208 | 1.8 | 4 | CNCC[C@H](Oc1cccc(I)c1)c1ccccc1 |
|  | 9.35 | 13.1 | CNCC[C@H](Oc1ccccc1I)c1ccccc1 |

Source: ChEMBL document CHEMBL1126094, “Iodinated tomoxetine derivatives as selective ligands for serotonin and norepinephrine uptake sites” (J Med Chem, 1992)
